Experimental data published in publication PMC10584170, “Machine learning-based phenotypic imaging to characterise the targetable biology of Plasmodium falciparum male gametocytes for the development of transmission-blocking antimalarials” (PLOS Pathogens, 2023).

Legend:
[1] = test system: P. falciparum male gametocytes; assay: P. falciparum Dual Gamete Formation Assay (PfDGFA), male readout (exflagellation); assay type: cell-based, Plasmodium falciparum NF54; details: for % inhibition male (individual replicates) R1: replicate R1; for % inhibition male (individual replicates) R3: replicate R3; for % inhibition male (individual replicates) R4: replicate R4; for Average inhibition male (%): average of replicates
Method in brief: (§1)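 Two sex-specific readouts come from one well: male exflagellation centres recorded by brightfield video right after activation, and female gametes scored by Cy3-anti-Pfs25 fluorescence after 24 h at 28°C.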

[2] = test system: P. falciparum female gametocytes; assay: P. falciparum Dual Gamete Formation Assay (PfDGFA), female readout (Pfs25-positive female gametes); assay type: cell-based, Plasmodium falciparum NF54; details: for % inhibition female (individual replicates) R1: replicate R1; for % inhibition female (individual replicates) R3: replicate R3; for % inhibition female (individual replicates) R4: replicate R4; for Average inhibition female (%): average of replicates
Method in brief: as §1

[3] = PfDGFA at 2µM, 24h preincubation with gametocytes prior to induction of gametogenesis
[4] = PfDGFA at 2µM, 24h preincubation
[5] = 2µM, 24h preincubation with gametocytes prior to induction of gametogenesis
[6] = 2µM, 24h preincubation, number of replicates with >50% inhibition in the male readout
[7] = 2µM, 24h preincubation, number of replicates with >50% inhibition in the female readout
[8] = PfDGFA at 2µM, 24h preincubation with gametocytes

## CCCC(C)NC(=O)[C@H]1CNCCN1C(=O)CCCc1ccccc1.O=C(O)C(F)(F)F (stereo partly shown) [TCMDC-141270]
[1]; [3]
  % inhibition male (individual replicates) R1: -7.3%
  % inhibition male (individual replicates) R3: -0.8%
  % inhibition male (individual replicates) R4: 2.9%
[1]; [4]
  Average inhibition male (%): -3.3%
[2]; [3]
  % inhibition female (individual replicates) R1: 8.3%
  % inhibition female (individual replicates) R3: -18.4%
  % inhibition female (individual replicates) R4: -2.2%
[2]; [4]
  Average inhibition female (%): 0.7%

## ON=C1CCc2cc(-c3cc(-c4ccc(OC5CCNCC5)cc4)oc3-c3ccncc3)ccc21 [TCMDC-141381]
[1]; [3]
  % inhibition male (individual replicates) R1: 12.4%
  % inhibition male (individual replicates) R3: 2.8%
  % inhibition male (individual replicates) R4: 13.5%
[1]; [4]
  Average inhibition male (%): 7.3%
[2]; [3]
  % inhibition female (individual replicates) R1: 10.4%
  % inhibition female (individual replicates) R3: -25.1%
  % inhibition female (individual replicates) R4: 18.2%
[2]; [4]
  Average inhibition female (%): 2.6%

## CN(C)CCN(Cc1ccc(-c2ccc(CNCCc3ccccc3)cc2)nc1)C(=O)CCC1CCCC1.O=C(O)C(F)(F)F [TCMDC-141402]
[1]; [5]
  Average inhibition male (%): 46.5%
  % inhibition male (individual replicates) R1: 41.7%
  % inhibition male (individual replicates) R3: 6.4%
  % inhibition male (individual replicates) R4: 71.6%
[1]; 2µM, 24h preincubation, hits selected on >50% inhibition in the male readout across replicates
  HitlevelM: 2
[1]; PfDGFA at 2µM, 24h preincubation, hit = >50% inhibition in male or female readout in at least 3 replicates, 0 = no class assigned
  Activity: 0
[2]; [5]
  Average inhibition female (%): 13.9%
  % inhibition female (individual replicates) R1: 22.3%
  % inhibition female (individual replicates) R3: 7.4%
  % inhibition female (individual replicates) R4: 7.2%
[2]; 2µM, 24h preincubation, hits selected on >50% inhibition in the female readout across replicates
  HitlevelF: 0

## O=C(C1CC1c1ccccc1)N(Cc1ccc(-c2ccc(CNCCc3ccccc3)cc2)cc1)C1CCNCC1.O=C(O)C(F)(F)F (stereo not shown) [TCMDC-141443]
[1]; [5]
  Average inhibition male (%): 40.0%
  % inhibition male (individual replicates) R1: 61.6%
  % inhibition male (individual replicates) R3: 28.4%
  % inhibition male (individual replicates) R4: 57.9%
[1]; [6]
  HitlevelM: 2
[2]; [5]
  Average inhibition female (%): 24.9%
  % inhibition female (individual replicates) R1: 19.9%
  % inhibition female (individual replicates) R3: 29.6%
  % inhibition female (individual replicates) R4: 18.3%
[2]; [7]
  HitlevelF: 0

## O=C(CCC1CCCC1)N(Cc1ccc(-c2ccc(CNCCc3ccccc3)cc2)cc1)C1CCCNC1.O=C(O)C(F)(F)F (stereo not shown) [TCMDC-141444]
[1]; [8]
  Average inhibition male (%): 71.0%
  % inhibition male (individual replicates) R1: 62.4%
  % inhibition male (individual replicates) R3: 42.1%
  % inhibition male (individual replicates) R4: 88.2%
[1]; number of replicates with >50% inhibition in the male readout, 2µM
  HitlevelM: 3
[2]; [8]
  Average inhibition female (%): 21.8%
  % inhibition female (individual replicates) R1: 31.1%
  % inhibition female (individual replicates) R3: 20.3%
  % inhibition female (individual replicates) R4: 22.2%
[2]; number of replicates with >50% inhibition in the female readout, 2µM
  HitlevelF: 0

## CC(C)CC(=O)N(Cc1ccc(-c2ccc(CNC3Cc4ccccc4C3)cc2)cc1)C1CCNCC1.O=C(O)C(F)(F)F [TCMDC-141449]
[1]; [5]
  Average inhibition male (%): 48.3%
  % inhibition male (individual replicates) R1: 49.9%
  % inhibition male (individual replicates) R3: 28.4%
  % inhibition male (individual replicates) R4: 64.9%
[1]; [6]
  HitlevelM: 2
[2]; [5]
  Average inhibition female (%): 21.5%
  % inhibition female (individual replicates) R1: 24.4%
  % inhibition female (individual replicates) R3: 9.8%
  % inhibition female (individual replicates) R4: 34.2%
[2]; [7]
  HitlevelF: 0

## O=C(COc1ccccc1)N(Cc1ccc(-c2ccc(CNC3Cc4ccccc4C3)cc2)cc1)C1CCNCC1.O=C(O)C(F)(F)F [TCMDC-141450]
[1]; [3]
  % inhibition male (individual replicates) R1: 15.3%
  % inhibition male (individual replicates) R3: -5.5%
  % inhibition male (individual replicates) R4: 33.6%
[1]; [4]
  Average inhibition male (%): 16.7%
[2]; [3]
  % inhibition female (individual replicates) R1: 8.2%
  % inhibition female (individual replicates) R3: -25.4%
  % inhibition female (individual replicates) R4: -2.6%
[2]; [4]
  Average inhibition female (%): -0.0825%

## CN(C)CCCNCc1ccc(-c2ccc(CNCCOc3ccccc3)cc2)cc1.O=C(O)C(F)(F)F [TCMDC-141457]
[1]; [3]
  % inhibition male (individual replicates) R1: 5.2%
  % inhibition male (individual replicates) R3: 1.0%
  % inhibition male (individual replicates) R4: 30.2%
[1]; [4]
  Average inhibition male (%): 9.2%
[2]; [3]
  % inhibition female (individual replicates) R1: 3.5%
  % inhibition female (individual replicates) R3: -18.9%
  % inhibition female (individual replicates) R4: -9.2%
[2]; [4]
  Average inhibition female (%): -4.9%
